Assays:
[1] = test system: normal primary NK cells, pool 1 (3 donors) (IL-2 2.5 ng/mL); test: percent inhibition of viability; higher = more inhibition; conditions: 72 h
[2] = test system: normal primary NK cells, pool 3 (3 donors) (IL-2 2.5 ng/mL); test: as above; conditions: 72 h
[3] = test system: DERL-7 (IL-2 2.5 ng/mL); test: as above; conditions: 72 h
[4] = test system: NK-92 (IL-2 2.5 ng/mL); test: as above; conditions: 72 h
[5] = test system: YT (IL-2 2.5 ng/mL); test: as above; conditions: 72 h
[6] = test system: normal primary NK cells, pool 2 (3 donors) (IL-2 2.5 ng/mL); test: as above; conditions: 72 h
[7] = test system: IMC-1 (IL-2 20 ng/mL); test: as above; conditions: 72 h
[8] = test system: SNK-6 (IL-2 2.5 ng/mL); test: as above; conditions: 72 h
[9] = test system: normal primary NK cells, pool 1 (3 donors), resting (IL-2 0 ng/mL); test: as above; conditions: 72 h
[10] = test system: KAI3 (IL-2 2.5 ng/mL); test: as above; conditions: 72 h
[11] = test system: NK-YS (IL-2 2.5 ng/mL); test: as above; conditions: 72 h
[12] = test system: NKL (IL-2 2.5 ng/mL); test: as above; conditions: 72 h
[13] = test system: KHYG-1 (IL-2 2.5 ng/mL); test: as above; conditions: 72 h
[14] = test system: normal NK cells expanded with K562-aAPC; test: as above; conditions: 72 h, IL-2 2.5 ng/mL
Protocol: (§1)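 Drug sensitivity and resistance testing on K562-aAPC-expanded normal NK cells: 5 concentrations (10-fold steps over a 10,000-fold range), 72 h at 37 °C, viability by CellTiter-Glo normalised to DMSO and benzethonium chloride controls; DSS from the fitted curve.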

[15] = test system: normal NK cells expanded with K562-aAPC; test: drug sensitivity score (DSS) (DSS units); higher = more sensitive; extreme values may be limits of the assay; conditions: 72 h; IL-2 2.5 ng/mL
Protocol: as §1

[16] = test system: normal primary NK cells, pool 1 (3 donors) (IL-2 2.5 ng/mL); test: as above; conditions: 72 h
[17] = test system: normal primary NK cells, pool 3 (3 donors) (IL-2 2.5 ng/mL); test: as above; conditions: 72 h
[18] = test system: DERL-7 (IL-2 2.5 ng/mL); test: as above; conditions: 72 h
[19] = test system: NK-92 (IL-2 2.5 ng/mL); test: as above; conditions: 72 h
[20] = test system: YT (IL-2 2.5 ng/mL); test: as above; conditions: 72 h
[21] = test system: normal primary NK cells, pool 2 (3 donors) (IL-2 2.5 ng/mL); test: as above; conditions: 72 h
[22] = test system: IMC-1 (IL-2 20 ng/mL); test: as above; conditions: 72 h
[23] = test system: SNK-6 (IL-2 2.5 ng/mL); test: as above; conditions: 72 h
[24] = test system: normal primary NK cells, pool 1 (3 donors), resting (IL-2 0 ng/mL); test: as above; conditions: 72 h
[25] = test system: KAI3 (IL-2 2.5 ng/mL); test: as above; conditions: 72 h
[26] = test system: NK-YS (IL-2 2.5 ng/mL); test: as above; conditions: 72 h
[27] = test system: NKL (IL-2 2.5 ng/mL); test: as above; conditions: 72 h
[28] = test system: KHYG-1 (IL-2 2.5 ng/mL); test: as above; conditions: 72 h

Cn1cc(C2=C(c3cn(C4CCN(Cc5ccccn5)CC4)c4ccccc34)C(=O)NC2=O)c2ccccc21 [Enzastaurin] (max concentration tested 10000 nM)
percent inhibition of viability [%]
Conditions | 1 nM | 10 nM | 100 nM | 1000 nM | 10000 nM
[1] | 2.52 | -11.7 | -6.73 | -14.6 | -7.58
[2] | -14.8 | -5.85 | 0.91 | -0.47 | 24.4
[3] | 1.51 | -3.14 | -1.37 | -1.66 | 38.9
[4] | 5.42 | 5.65 | -7.08 | -10.9 | 14.2
[5] | 0.21 | 3.25 | 5.09 | 4.05 | 16.4
[6] | -9.8 | 0.84 | 10.8 | -7.31 | 23.3
[7] | -6.89 | 3.57 | 0.18 | 12 | 33.1
[8] | -2.07 | -1.57 | 11 | -2.69 | 14.5
[9] | 3.14 | -9.37 | -6.91 | -38.3 | -57.7
[10] | -2.12 | 1.12 | -3.1 | -5.65 | 1.6
[11] | 0.58 | 2.87 | 5.54 | 3.28 | 8.57
[12] | -10.8 | -1.53 | 6.99 | 9.21 | 4.11
[13] | 0.22 | 1.8 | 5.25 | 15.6 | 19
[14] | -2.11 | 0.83 | 0.77 | 6.44 | 4.35

Conditions | drug sensitivity score
[15] | 0
[16] | 0
[17] | 0.87
[18] | 1.77
[19] | 0.06
[20] | 0.24
[21] | 0.55
[22] | 3.17
[23] | 0.12
[24] | 0
[25] | 0
[26] | 0
[27] | 0
[28] | 2

COc1cc([C@@H]2c3cc4c(cc3[C@@H](O[C@@H]3O[C@@H]5CO[C@@H](C)O[C@H]5[C@H](O)[C@H]3O)[C@H]3COC(=O)[C@H]23)OCO4)cc(OC)c1O [Etoposide] (max concentration tested 10000 nM)
percent inhibition of viability [%]
Conditions | 1 nM | 10 nM | 100 nM | 1000 nM | 10000 nM
[1] | -1.51 | 1.58 | 11.1 | 14.3 | 79.7
[2] | 0.28 | -3.78 | 10.1 | 11.7 | 48.3
[3] | -3.7 | 3.15 | 32.8 | 97 | 82.8
[4] | -7.31 | -6.78 | 5.02 | 67.3 | 101
[5] | -3.45 | -8.19 | -5.67 | 44.7 | 98.2
[6] | -2.19 | -0.27 | 0.34 | 8.73 | 53.7
[7] | -6.15 | 1.75 | 34.8 | 97.9 | 99.5
[8] | -11.1 | 0.92 | -0.88 | 74.3 | 96.2
[9] | 0.93 | 10 | 22.8 | 40 | 90.5
[10] | 5.94 | 13.2 | 41.3 | 76.4 | 78
[11] | 3.6 | 4.01 | 29.1 | 77.3 | 83.9
[12] | -3.26 | 4.8 | 80.7 | 94.3 | 101
[13] | -3.98 | -9.64 | 3.44 | 87.1 | 101
[14] | -5.25 | -8.84 | -1.72 | 49.7 | 65.7

Conditions | drug sensitivity score
[15] | 9.42
[16] | 6.78
[17] | 4.07
[18] | 21.9
[19] | 13.7
[20] | 11.1
[21] | 4.34
[22] | 22.2
[23] | 13.8
[24] | 11.3
[25] | 19.3
[26] | 17.7
[27] | 28
[28] | 16.2

CO[C@H]1C[C@@H]2CC[C@@H](C)[C@@](O)(O2)C(=O)C(=O)N2CCCC[C@H]2C(=O)O[C@H]([C@H](C)C[C@@H]2CC[C@@H](OCCO)[C@H](OC)C2)CC(=O)[C@H](C)/C=C(\C)[C@@H](O)[C@@H](OC)C(=O)[C@H](C)C[C@H](C)/C=C/C=C/C=C/1C [Everolimus] (max concentration tested 100 nM)
percent inhibition of viability [%]
Conditions | 0.01 nM | 0.1 nM | 1 nM | 10 nM | 100 nM
[1] | -12.5 | -14.8 | -8.5 | 3.67 | 5.77
[2] | -12.6 | -4.69 | -3.14 | -1.42 | -2.25
[3] | -6.16 | 5.85 | 26.6 | 49.4 | 52.4
[4] | -9.11 | -13.2 | 0.14 | 10.7 | 17
[5] | 0.19 | -0.65 | 15.8 | 38.4 | 37
[6] | -7.7 | -1.98 | 0.82 | 5.73 | 4.97
[7] | -0.49 | -3.23 | -12.1 | -39.5 | -47.1
[8] | 5.61 | 27 | 39.2 | 45.4 | 42.4
[9] | -9.7 | -10.5 | -6.43 | 11.5 | 21.5
[10] | -3.78 | 2.36 | 31.4 | 45.3 | 37.6
[11] | -2.59 | 2.94 | 38.2 | 47.2 | 45.8
[12] | 4.18 | 17.6 | 36.9 | 46 | 43.3
[13] | -2.44 | -5.06 | 0.91 | 30.6 | 28.2
[14] | -0.77 | -3.8 | -2.52 | 2.05 | 0.46

Conditions | drug sensitivity score
[15] | 0
[16] | 0
[17] | 0
[18] | 12.3
[19] | 1.27
[20] | 8.98
[21] | 0
[22] | 0
[23] | 16.6
[24] | 1.91
[25] | 12.1
[26] | 13.5
[27] | 14.5
[28] | 5.27

Reference: the supplement of paper PMC5908809
